Values quoted from earlier work in patent US6461591B1, “Medical aerosol formulations” (Jago Research AG, priority 1997, dated 2002).

Conditions: at 20° C.

Compound	vapour pressure	density
FCC(F)(F)F [HFA 134a, 1,1,1,2-tetrafluoroethane]	about 6 bar	–
FC(C(F)(F)F)C(F)(F)F [HFA 227, 1,1,1,2,3,3,3-heptafluoropropane]	about 4.2 bar	about 1.4 mg/ml
